Assays:
Z-138 [1] = test: Antiproliferative activity against human Z138 cells measured after 7 days by CellTiter-Glo luminescence cell viability assay; assay type: functional, cell-based; details: Z-138, 168 h
[2] = Toxicity in Sprague-Dawley rat assessed as morphological changes in caecum at 31.25 to 125 mg/kg, po administered once a day for 14 days by H and E staining based analysis; assay type: organism-based; details: in vivo, 336 h, dose 31.25-125 mg/kg, time 14 day
[3] = Toxicity in Sprague-Dawley rat assessed as structural changes in bone marrow at 31.25 to 125 mg/kg, po administered once a day for 14 days by H and E staining based analysis; assay type: organism-based; details: in vivo, 336 h, dose 31.25-125 mg/kg, time 14 day
T47D = test: Antiproliferative activity against human T47D cells measured after 4 to 5 days by CCK-8 assay; assay type: functional, cell-based
PRMT5/MEP50 complex [4] = target: T1, PRMT5/MEP50 complex (Homo sapiens, UniProt O14744); test: Binding affinity to PRMT5/MEP50 (unknown origin) assessed as dissociation constant by SPR analysis; assay type: protein-complex assay
T1 sequence (O14744 whole entry): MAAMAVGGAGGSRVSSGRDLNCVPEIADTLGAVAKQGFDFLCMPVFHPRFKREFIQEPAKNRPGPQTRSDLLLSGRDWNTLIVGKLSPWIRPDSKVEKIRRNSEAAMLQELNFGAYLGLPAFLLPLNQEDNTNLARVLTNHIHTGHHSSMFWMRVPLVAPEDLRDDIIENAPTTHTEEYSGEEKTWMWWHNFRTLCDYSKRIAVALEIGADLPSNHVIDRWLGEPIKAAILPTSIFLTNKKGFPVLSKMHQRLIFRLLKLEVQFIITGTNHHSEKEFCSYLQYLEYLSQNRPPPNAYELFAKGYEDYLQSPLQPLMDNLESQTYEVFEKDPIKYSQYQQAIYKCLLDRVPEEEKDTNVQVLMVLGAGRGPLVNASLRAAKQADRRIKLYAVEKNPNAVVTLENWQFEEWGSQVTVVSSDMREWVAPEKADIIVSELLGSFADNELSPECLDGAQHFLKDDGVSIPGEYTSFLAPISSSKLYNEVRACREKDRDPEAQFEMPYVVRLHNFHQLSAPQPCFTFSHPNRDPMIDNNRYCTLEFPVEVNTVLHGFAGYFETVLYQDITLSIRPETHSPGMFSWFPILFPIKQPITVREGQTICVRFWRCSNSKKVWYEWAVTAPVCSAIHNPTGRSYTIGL
T1 sequence (Q9BQA1 whole entry, further chain): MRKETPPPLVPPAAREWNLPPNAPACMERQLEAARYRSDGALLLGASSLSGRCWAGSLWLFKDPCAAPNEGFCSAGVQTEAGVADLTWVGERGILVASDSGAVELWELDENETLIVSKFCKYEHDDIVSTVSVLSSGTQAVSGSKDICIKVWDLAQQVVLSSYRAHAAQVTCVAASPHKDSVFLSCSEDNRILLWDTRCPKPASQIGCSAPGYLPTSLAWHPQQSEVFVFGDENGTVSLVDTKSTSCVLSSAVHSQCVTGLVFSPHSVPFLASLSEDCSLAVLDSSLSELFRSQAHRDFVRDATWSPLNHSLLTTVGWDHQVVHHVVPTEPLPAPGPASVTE

A-427 = test: Antiproliferative activity against human A-427 cells measured after 4 to 5 days by CCK-8 assay; assay type: functional, cell-based
Z-138 [5] = test: Antiproliferative activity against PRMT5 knockout human Z138 cells measured after 7 days by CellTiter-Glo luminescence cell viability assay; assay type: functional, cell-based; details: Z-138, 168 h
Cytochrome P450 1A2 = Cytochrome P450 1A2 (Homo sapiens, UniProt P05177); test: Inhibition of CYP1A2 (unknown origin); assay type: ADME
Chain of Cytochrome P450 1A2 (P05177 whole entry): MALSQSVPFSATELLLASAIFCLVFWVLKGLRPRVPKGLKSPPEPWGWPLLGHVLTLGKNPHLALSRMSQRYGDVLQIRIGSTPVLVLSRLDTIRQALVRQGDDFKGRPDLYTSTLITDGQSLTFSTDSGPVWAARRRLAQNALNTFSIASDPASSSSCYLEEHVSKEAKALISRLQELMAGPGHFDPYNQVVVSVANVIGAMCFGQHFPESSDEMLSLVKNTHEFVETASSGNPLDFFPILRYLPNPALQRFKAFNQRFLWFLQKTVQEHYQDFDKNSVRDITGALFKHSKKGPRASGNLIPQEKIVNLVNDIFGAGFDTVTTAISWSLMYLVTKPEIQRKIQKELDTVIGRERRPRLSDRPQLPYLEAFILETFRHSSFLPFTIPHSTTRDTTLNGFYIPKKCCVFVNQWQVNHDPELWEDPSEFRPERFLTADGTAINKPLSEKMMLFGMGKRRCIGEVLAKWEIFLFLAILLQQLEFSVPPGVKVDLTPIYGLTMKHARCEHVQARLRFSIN

[6] = target: Protein arginine N-methyltransferase 5 (Homo sapiens) (UniProt O14744); test: In vivo inhibition of PRMT5 in female SCID.BG nude mouse xenografted with human Z138 cells assessed as decrease in SmD3me2s level at 12.5 to 50 mg/kg, po administered twice a day for 21 days by Western blotting analysis; assay type: functional, organism-based; details: dose 12.5-50 mg/kg, time 21.0 day
Chain of Protein arginine N-methyltransferase 5 (Homo sapiens) (O14744 whole entry): as the sequence (O14744 whole entry) above

[7] = Toxicity in Sprague-Dawley rat assessed as animal death at 31.25 to 125 mg/kg, po administered once a day for 14 days; assay type: organism-based; details: in vivo, 336 h, dose 31.25-125 mg/kg, time 14 day
Cytochrome P450 3A4 [8] = target: T2, Cytochrome P450 3A4 (Homo sapiens, UniProt P08684); test: Inhibition of CYP3A4 (unknown origin) using testosterone as substrate; assay type: ADME
T2 sequence (P08684 whole entry): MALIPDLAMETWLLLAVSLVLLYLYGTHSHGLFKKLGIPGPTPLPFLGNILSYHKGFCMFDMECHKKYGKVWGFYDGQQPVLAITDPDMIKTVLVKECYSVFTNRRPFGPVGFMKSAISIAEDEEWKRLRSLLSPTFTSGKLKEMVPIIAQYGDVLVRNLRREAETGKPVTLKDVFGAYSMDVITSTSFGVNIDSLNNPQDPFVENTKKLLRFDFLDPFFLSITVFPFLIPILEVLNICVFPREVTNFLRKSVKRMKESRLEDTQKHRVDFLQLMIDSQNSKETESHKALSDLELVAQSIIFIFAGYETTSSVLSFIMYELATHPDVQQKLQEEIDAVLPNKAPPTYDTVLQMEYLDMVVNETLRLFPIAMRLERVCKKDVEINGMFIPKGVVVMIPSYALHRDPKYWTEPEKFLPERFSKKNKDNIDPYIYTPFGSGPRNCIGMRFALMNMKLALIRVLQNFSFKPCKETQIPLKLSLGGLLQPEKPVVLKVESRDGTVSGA

[9] = Toxicity in female SCID.BG […] mouse xenografted with human Z138 cells assessed as body weight loss at 12.5 to 50 mg/kg, po administered twice a day for 21 days; assay type: organism-based; details: in vivo, 504 h, dose 12.5-50 mg/kg, time 21 day
Z-138 [10] = test: Antitumor activity against human Z138 cells xenografted in female SCID.BG nude mouse assessed as tumor growth inhibition at 25 mg/kg, po administered twice a day for 21 days relative to control; assay type: functional; details: Z-138, 504 h, time 21 day, read-out: TGI
[11] = Metabolic stability in human liver microsomes assessed as half-life at 1 uM measured upto 240 mins; assay type: ADME, Microsome
[12] = target: Protein arginine N-methyltransferase 5 (Homo sapiens) (UniProt O14744); test: Inhibition of PRMT5 in human Z138 cells assessed as decrease in symmetric dimethyl arginine level incubated for 48 hrs by Western blot analysis; assay type: cell-based; details: dose 0.005-5 µM
[13] = Protein binding in dog plasma; assay type: ADME, cell-free, Canis lupus familiaris; details: read-out: PPB (converted)
NCI-H1975 = test: Antiproliferative activity against human NCI-H1975 cells measured after 4 to 5 days by CCK-8 assay; assay type: functional, cell-based
[14] = Toxicity in Sprague-Dawley rat assessed as structural changes in stomach at 31.25 to 125 mg/kg, po administered once a day for 14 days by H and E staining based analysis; assay type: organism-based; details: in vivo, 336 h, dose 31.25-125 mg/kg, time 14 day
[15] = Toxicity in Sprague-Dawley rat assessed as structural changes in caecum at 31.25 to 125 mg/kg, po administered once a day for 14 days by H and E staining based analysis; assay type: organism-based; details: in vivo, 336 h, dose 31.25-125 mg/kg, time 14 day
[16] = Toxicity in Sprague-Dawley rat assessed as body weight loss at 31.25 to 125 mg/kg, po administered once a day for 14 days; assay type: organism-based; details: in vivo, 336 h, dose 31.25-125 mg/kg, time 14 day
Cytochrome P450 2D6 = Cytochrome P450 2D6 (Homo sapiens, UniProt P10635); test: Inhibition of CYP2D6 (unknown origin); assay type: ADME
Chain of Cytochrome P450 2D6 (P10635 whole entry): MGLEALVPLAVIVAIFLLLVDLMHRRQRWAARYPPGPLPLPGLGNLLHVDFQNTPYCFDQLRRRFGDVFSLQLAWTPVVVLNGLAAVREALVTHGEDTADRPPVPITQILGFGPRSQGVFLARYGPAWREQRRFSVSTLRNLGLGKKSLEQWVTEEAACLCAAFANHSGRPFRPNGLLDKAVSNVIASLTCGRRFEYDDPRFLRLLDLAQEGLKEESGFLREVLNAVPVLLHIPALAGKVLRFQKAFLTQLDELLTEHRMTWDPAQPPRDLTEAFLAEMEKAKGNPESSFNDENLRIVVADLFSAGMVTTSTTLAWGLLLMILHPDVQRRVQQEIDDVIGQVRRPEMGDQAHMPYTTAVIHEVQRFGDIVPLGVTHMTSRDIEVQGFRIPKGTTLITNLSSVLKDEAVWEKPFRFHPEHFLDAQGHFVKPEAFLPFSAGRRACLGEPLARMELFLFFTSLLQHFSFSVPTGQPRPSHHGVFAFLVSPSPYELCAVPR

[17] = Metabolic stability in rat liver microsomes assessed as half-life at 1 uM measured upto 240 mins; assay type: ADME, Microsome
[18] = Toxicity in Sprague-Dawley rat assessed as structural changes in spleen at 31.25 to 125 mg/kg, po administered once a day for 14 days by H and E staining based analysis; assay type: organism-based; details: in vivo, 336 h, dose 31.25-125 mg/kg, time 14 day
[19] = Toxicity in Sprague-Dawley rat assessed as morphological changes in spleen at 31.25 to 125 mg/kg, po administered once a day for 14 days by H and E staining based analysis; assay type: organism-based; details: in vivo, 336 h, dose 31.25-125 mg/kg, time 14 day
[20] = Toxicity in Sprague-Dawley rat assessed as morphological changes in thymus at 31.25 to 125 mg/kg, po administered once a day for 14 days by H and E staining based analysis; assay type: organism-based; details: in vivo, 336 h, dose 31.25-125 mg/kg, time 14 day
PRMT5/MEP50 complex [21] = target: T1, PRMT5/MEP50 complex; test: Inhibition of recombinant N-terminal FLAG-tagged human full-length PRMT5/full length human MEP50 extracted from baculovirus expression system using [3H]-SAM as substrate preincubated for 15 mins followed by substrate addition and measured after 60 mins by multimode plate reader analysis
[22] = Toxicity in Sprague-Dawley rat assessed as morphological changes in bone marrow at 31.25 to 125 mg/kg, po administered once a day for 14 days by H and E staining based analysis; assay type: organism-based; details: in vivo, 336 h, dose 31.25-125 mg/kg, time 14 day
Cytochrome P450 2C19 = Cytochrome P450 2C19 (Homo sapiens, UniProt P33261); test: Inhibition of CYP2C19 (unknown origin); assay type: ADME
Chain of Cytochrome P450 2C19 (P33261 whole entry): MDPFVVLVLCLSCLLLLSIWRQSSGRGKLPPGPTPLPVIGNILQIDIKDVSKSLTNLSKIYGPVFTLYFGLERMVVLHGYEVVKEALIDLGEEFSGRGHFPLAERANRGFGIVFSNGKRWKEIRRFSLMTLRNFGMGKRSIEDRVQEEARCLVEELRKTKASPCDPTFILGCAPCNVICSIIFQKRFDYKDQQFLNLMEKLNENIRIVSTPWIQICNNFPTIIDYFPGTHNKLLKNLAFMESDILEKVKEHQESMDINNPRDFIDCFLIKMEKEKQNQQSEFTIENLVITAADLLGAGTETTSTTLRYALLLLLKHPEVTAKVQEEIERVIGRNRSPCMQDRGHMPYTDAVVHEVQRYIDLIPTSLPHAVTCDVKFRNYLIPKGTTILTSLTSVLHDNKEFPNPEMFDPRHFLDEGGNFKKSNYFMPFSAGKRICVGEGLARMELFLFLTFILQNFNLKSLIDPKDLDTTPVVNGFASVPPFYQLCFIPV

Cytochrome P450 3A4 [23] = target: T2, Cytochrome P450 3A4; test: Inhibition of CYP3A4 (unknown origin) using midazolam as substrate; assay type: ADME
Ishikawa = test: Antiproliferative activity against human Ishikawa cells measured after 4 to 5 days by CCK-8 assay; assay type: functional, cell-based

**Q.** With `CC(=O)N1CCC(Nc2cc(C(=O)NC[C@H](O)CN3CCc4ccccc4C3)ncn2)CC1` [PEMRAMETOSTAT] as the compound, how does the IC50 (Z-138 [1]) read?
**A.** The IC50 was 25.8 nM.

**Q.** With `CC(=O)N1CC2(CC(Nc3cc4c(cn3)C3(CC3)CN(C[C@H](O)CN3CCc5ccccc5C3)C4=O)C2)C1` as the compound, how does the Activity [2] read?
**A.** The Activity was “Non-toxic”.

**Q.** And the Activity [3]?
**A.** The Activity was “Non-toxic”.

**Q.** What about the IC50 (T47D) of the same compound?
**A.** Its IC50 is 2.25 nM.

**Q.** And the Kd (PRMT5/MEP50 complex [4])?
**A.** The Kd was 104 nM.

**Q.** And the IC50 (A-427)?
**A.** Its IC50 is 72.3 nM.

**Q.** What about the IC50 (Z-138 [5]) of the same compound?
**A.** The IC50 was > 10000 nM.

**Q.** And the IC50 (Cytochrome P450 1A2)?
**A.** Its IC50 is > 50000 nM.

**Q.** What about the inhibition [6] of the same compound?
**A.** The inhibition was “Active; More Potent Than Gsk3326595”.

**Q.** What about the Activity [7] of the same compound?
**A.** Its Activity is “Non-toxic”.

**Q.** And the IC50 (Cytochrome P450 3A4 [8])?
**A.** Its IC50 is > 50000 nM.

**Q.** What about the Activity [9] of the same compound?
**A.** Its Activity is “Non-toxic”.

**Q.** And the inhibition in vivo at 25 mg/kg (Z-138 [10])?
**A.** Its inhibition in vivo at 25 mg/kg is 106%.

**Q.** And the half-life at 1 µM [11]?
**A.** Its half-life at 1 µM is 17.5 min.

**Q.** What about the inhibition [12] of the same compound?
**A.** The inhibition was “Dose-dependent-effect”.

**Q.** And the fraction unbound [13]?
**A.** Its fraction unbound is 0.0204.

**Q.** And the IC50 (NCI-H1975)?
**A.** Its IC50 is 0.95 nM.

**Q.** What about the Activity [14] of the same compound?
**A.** Its Activity is “Non-toxic”.

**Q.** What about the Activity [15] of the same compound?
**A.** The Activity was “Non-toxic”.

**Q.** And the Activity [16]?
**A.** The Activity was “Non-toxic”.

**Q.** What about the IC50 (Cytochrome P450 2D6) of the same compound?
**A.** Its IC50 is > 50000 nM.

**Q.** And the half-life at 1 µM [17]?
**A.** Its half-life at 1 µM is 85.6 min.

**Q.** And the Activity [18]?
**A.** The Activity was “Non-toxic”.

**Q.** What about the Activity [19] of the same compound?
**A.** The Activity was “Non-toxic”.

**Q.** And the Activity [20]?
**A.** The Activity was “Non-toxic”.

**Q.** What about the IC50 (PRMT5/MEP50 complex [21]) of the same compound?
**A.** Its IC50 is 20.7 nM.

**Q.** What about the Activity [22] of the same compound?
**A.** Its Activity is “Non-toxic”.

**Q.** And the IC50 (Cytochrome P450 2C19)?
**A.** Its IC50 is > 50000 nM.

**Q.** What about the IC50 (Cytochrome P450 3A4 [23]) of the same compound?
**A.** The IC50 was > 50000 nM.

**Q.** And the IC50 (Ishikawa)?
**A.** Its IC50 is 5.47 nM.

Source: ChEMBL document CHEMBL6087464, “Design, Synthesis, and Biological Evaluation of 3,4-Dihydroisoquinolin-1(2H)-one Derivatives as Protein Arginine Methyltransferase 5 Inhibitors for the Treatment of Non-Hodgkin's Lymphoma” (J Med Chem, 2025)
